How the values were obtained:
[1] = system: eIF5A; assay: eIF5A nuclear-to-cytoplasmic translocation in INS-1 cells (immunofluorescence); format: cell-based, rat; conditions: pretreatment, then cytokines 4 h
Procedure: Given the striking retention of Nos2 transcripts in the absence of eIF5A-Hyp, it was of interest to determine whether the intracellular distribution of eIF5A accounts for its effect on Nos2 nucleo-cytoplasmic shuttling. Immunofluorescence of eIF5A in fixed INS-1 cells, were thus performed. […] Upon treatment of cells with cytokines, there was a shift in the eIF5A distribution pattern from the nucleus to the cytoplasm.
Cytokine and inhibitor incubation studies: For cytokine incubation assays, a 1000× cocktail of cytokines containing 5 μg/ml IL1β, 10 μg/ml TNFα, and 100 μg/ml IFNγ (all prepared in 0.1% BSA in Tris-buffered saline) was applied at 1× final concentration to groups of 50 islets or 1×10^6 INS-1 (832/13) cells for a total of 4 h at 37° C. For GC7 incubation studies, GC7 was prepared at a stock concentration of 125 mM in 10 mM acetic acid and applied to cultures of 50 islets or 1×10^6 INS-1 cells to obtain the final concentrations indicted in the figures. […]
Immunofluorescence: Immunofluorescence of INS-1 cells proceeded essentially as described previously (71), using primary antibodies to eIF5A1 and secondary anti-mouse Alexa-488-conjugated antibody (Invitrogen), or by direct visualization of GFP fusion proteins at 488 nm. […] Quantitation of cytoplasic-to-nuclear ratios of eIF5A staining was performed using Axio-Vision Software, v. […]

[2] = system: iNOS; assay: Cytokine-induced iNOS protein in human islets (immunoblot); format: cell-based; conditions: incubation with GC7, cytokines
From the text: eIF5A1 and eIF5A2 are the only proteins known to contain the unique amino acid hypusine at position 50. Hypusine is formed as a posttranslational modification of residue Lys50 in a reaction requiring spermidine and catalyzed by the sequential actions of the enzymes deoxyhypusine synthase (DHS) and deoxyhypusine hydroxylase (DOHH) (Chen, K Y, and Liu, A Y. Biochemistry and function of hypusine formation on eukaryotic initiation factor 5A. Biol Signals. 1997; 6(3):105-109). […] To further investigate the mechanism of eIF5A-regulated translation of Nos2, studies were performed following overnight incubation of cells with mimosine (an inhibitor of DOHH) and GC7 (an inhibitor of DHS). […]
Immunoblot and nitrite and iNOS assays: Whole cell extracts were resolved by electrophoresis on a 4-20% SDS-polyacrylamide gel, followed by immunoblot using anti-eIF5A1, anti-eIF5A2, anti-iNOS, anti-GFP, or anti-actin primary antibodies and fluorophore-labeled secondary antibodies. Immunoblots were visualized using the Li-Cor® Odyssey® system (Li-Cor Biosciences) and quantitated by scanning fluorometry using Odyssey Imaging v. […] Nitrite was quantitated by measuring nitric oxide-derived nitrite from INS-1 cell culture medium using the Griess reagent (Promega) according to the manufacturer's recommendations. iNOS activity was measured using a commercially available kit (Cayman).

[3] = system: eIF5A-Hyp binding to mRNA; assay: RNA immunoprecipitation with eIF5A antibody in cytokine-treated INS-1 cells; format: cell-based, rat; conditions: GC7 overnight, cytokines 4 h
From the text: The retention of both Nos2 transcripts and eIF5A in the nucleus upon inhibition of hypusination is consistent with a close relationship between the two molecules, such that eIF5A may serve to chaperone Nos2 transcripts from the nucleus to the cytoplasm in response to cytokine stimulation. eIF5A-Hyp binds to RNAs that contain the consensus sequence 5′-AAAUGU-3′ (47), which is present in the Nos2 mRNA. To determine if eIF5A-Hyp binds Nos2 mRNA, RNA immunoprecipitation assays using INS-1 cell total RNA were performed. […] In contrast, no co-precipitation of other NFkB target and non-target genes was observed.
RNA immunoprecipitation (RIP) assays: RIP assays from 1×10^7 formaldehyde cross-linked INS-1 cells were performed as described (75). Isotype-matched antibodies against eIF5A and the FLAG-M2 epitope (for control immunoprecipitations) were used at a final dilution of 1:100. Immunoprecipitated RNA was reversed transcribed and subjected to quantitative PCR amplification for selected genes as described above. All data represent the average of triplicate determinations from at least 3 independent RIP assays.

[4] = system: iNOS; assay: iNOS activity assay (commercial kit); format: biochemical; conditions: GC7 125 μM
Procedure: Because GC7 is known to be inactivated by the action amine oxidases, which are abundant in serum, typical studies with GC7 in the literature have used aminoguanidine to inhibit amine oxidases (16). […] To rule out possible adverse effects of GC7 on cell viability, quantitative 2 color fluorescence analysis of live (calcein-AM-positive) and dead (ethidium homodimer-1-positive) cells were performed using fluorescence cytometry.
Immunoblot and nitrite and iNOS assays: Whole cell extracts were resolved by electrophoresis on a 4-20% SDS-polyacrylamide gel, followed by immunoblot using anti-eIF5A1, anti-eIF5A2, anti-iNOS, anti-GFP, or anti-actin primary antibodies and fluorophore-labeled secondary antibodies. Immunoblots were visualized using the Li-Cor® Odyssey® system (Li-Cor Biosciences) and quantitated by scanning fluorometry using Odyssey Imaging v. 3.0 software (Li-Cor Biosciences). Nitrite was quantitated by measuring nitric oxide-derived nitrite from INS-1 cell culture medium using the Griess reagent (Promega) according to the manufacturer's recommendations. iNOS activity was measured using a commercially available kit (Cayman).

What does the source list for `NCCCCCCCN=C(N)N` [GC7]?
cytokine-induced translocation of eIF5A [1]: failed to induce the nuclear to cytoplasmic translocation of eIF5A; iNOS protein levels in human islets [2]: dose-dependent inhibition; co-precipitation of mRNA with eIF5A antibody [3]: no co-precipitation of any mRNA species; inhibition of iNOS activity [4]: does not appear to inhibit iNOS activity
